The values that follow come from PubChem BioAssay AID179 (DTP/NCI, 2004).

pEC50, pIC50: −log10 of the molar value. The source made the active and inactive calls.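 The calls were made as follows: active = compounds giving half or more protection of infected cells from virus-caused growth loss, again on retest; inactive = the rest.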

The assay deals with CEM cells HIV-1 protection, formazan growth assay. The experiment in a line: NCI AIDS Antiviral Assay. To be noted: for pIC50: measured here: growth of uninfected CEM cells. In outline: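 Human CEM cells, uninfected and HIV-1-infected, exposed to five drug concentrations; growth measured by soluble formazan assay and scored as percent protection from infection, with protecting compounds retested.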

Consider `COc1ccccc1OS(=O)(=O)c1ccc(C)cc1`, for which the outcome was inactive.
Usually pEC50 stands for −log10 of the EC50, conventionally taken in molar units. Usually pIC50 stands for −log10 of the IC50, conventionally taken in molar units. Low values mean a large IC50, high ones a small IC50. On to `CCc1cccc2c3c([nH]c12)C(CC)(CC(=O)O)OCC3` (centres undefined), for which the pEC50 was less than 3.70 and the pIC50 is less than 3.70.
On to `C1CSCCSS[C@@H]2CCCCC2SC1` (some centres undefined), for which the pEC50 is less than 4.47 and the pIC50 is less than 4.47.
For `O=c1c2cc(Cl)ccc2sc2cccc(Cl)c12`, the pEC50 is less than 5.87 and the pIC50 is less than 5.87.
For the molecule `Cc1ccc(-c2cc(-c3ccccc3)c(C#N)c(=O)[nH]2)cc1`, the pEC50 is less than 4.18 and the pIC50 is less than 4.18.
Take `CC1=CCC[C@H]2[C@](C)(CC3=CC(=O)C(Sc4ccccc4)=CC3=O)[C@@H](C)CC[C@]12C`: the pEC50 was less than 3.70 and the pIC50 is 5.88.
The corresponding values for `CC(C)CCC[C@@H](C)[C@H]1CC[C@H]2[C@@H]3CC[C@H]4C[C@@H](CC/C=C(/c5ccc(OCc6ccccc6B(O)O)c(C(=O)O)c5)c5cc(Cl)c(OCc6ccccc6B(O)O)c(C(=O)O)c5)CC[C@]4(C)[C@H]3CC[C@]12C` are less than 3.70 and less than 3.70.
On to `O=c1nc2c(c(-c3ccc(F)cc3)[nH]1)COC/C2=C\c1ccc(F)cc1`, for which the outcome was inactive.
As to `COC(=O)C1(O)C(c2ccccc2)NC2(C)CCCC21` (centres undefined), the pEC50 was less than 3.70 and the pIC50 was less than 3.70.
With `COc1ccc2c(c1)CCc1c(C(C)=O)c3ccccc3n1C2`, the pEC50 is less than 4.23 and the pIC50 was less than 4.23.
On to `CC1C=C2c3ccccc3CC2C2C(=O)OC(=O)C12` (centres undefined), for which the pEC50 was less than 3.70 and the pIC50 is less than 3.70.
As for `CN(C)c1ccc(C=C2C(=O)OC(C)(C)OC2=O)cc1`, the outcome was inactive.
With `CCCCCC(C(O)C#N)C(O)(C(F)(F)F)C(F)(F)F` (centres undefined), the pEC50 is less than 3.70 and the pIC50 is 4.28.
Take `Cc1cn(C2C[C@@H]3C(COC(c4ccc([N+](=O)[O-])cc4)N3O)O2)c(=O)[nH]c1=O` (some centres undefined): the pEC50 is less than 3.70 and the pIC50 was less than 3.70.
Take `Cc1ccc(S(=O)(=O)N2CCCN(S(=O)(=O)c3ccc(C)cc3)CCSCCCSCC2)cc1`: the pEC50 was less than 3.70 and the pIC50 was 4.50.
In the same order, the values of `S=C(NNc1nc2ccccc2n2cccc12)Nc1ccc(Br)cn1` are less than 6.70 and 7.21.
On to `O=C(O)[C@H](NS(=O)(=O)c1ccc2ccccc2c1)c1ccccc1`, for which the result was inactive.
As for `CCCOC(=O)C(C)(C)C(OP(=O)(OCCC)OCCC)=C(C)C`, the pEC50 was less than 3.70 and the negative logarithm of the IC50 (pIC50) is 3.98.
The corresponding values for `O=P(Nc1ccccc1)(Nc1ccccc1)Nc1ccccc1` are less than 3.81 and 3.85.
As to `Clc1nssc1=Nc1nonc1-c1ccccc1`, the pEC50 is less than 3.70 and the pIC50 is 5.26.
As for `Nc1nc(N)c(-c2ccccc2)c(C(=O)Nc2ccc(Cl)c(Cl)c2)n1`, the pEC50 was less than 3.32.
On to `O=C(OC1=CCN(Br)C1=O)C1=C(O)C(=O)N(Br)C1`, for which the pEC50 is less than 3.70 and the negative-log IC50 (pIC50) is 4.49.
For `CCOC(=O)Cc1cnc(NC(NC(=O)CC)(C(F)(F)F)C(F)(F)F)s1`, the pEC50 was less than 3.70 and the pIC50 was less than 3.70.
For `CCC1=CC2CN3CCc4c([nH]c5ccccc45)[C@@](C(=O)OC)(C2)[C@@H]13`, the result was inactive.
On to `CC1OC(OC2C(O[C@@H]3C[C@@H]4CC[C@@H]5[C@H](CC[C@]6(C)[C@@H]7[C@H](C[C@@H]56)O[C@]5(CC[C@@H](C)CO5)[C@H]7C)[C@@]4(C)C[C@H]3O)OC(CO)C(OC3OC(CO)C(O)C(O)C3O)C2O)C(O)C(O)C1O` (some centres undefined), for which the pEC50 was less than 5.00 and the pIC50 is 5.74.
In the case of `C[n+]1cccc2ccc(OC(=O)c3ccccc3)cc21`, the result was inactive.
In the case of `CC(C)=CCC[C@@H](C)C1=C(O)C(Nc2ccccc2)=C(C)C(=O)C1=O`, the pEC50 was less than 3.70 and the pIC50 was 4.88.
Turning to `CC(C)=CCC1=C(O)C(CC=C(C)C)(CC=C(C)C)C(=O)C(C(=O)C(C)C)=C1O`, the pEC50 is less than 4.47 and the pIC50 is 5.15.
On to `c1cnc2c(c1)-n1cccc1C1(CCCCC1)NN2`, for which the pEC50 was less than 3.70 and the pIC50 was less than 3.70.
As for `CC(=C(c1ccccc1)c1ccccc1)N1C(=O)CC(=O)N1C`, the pEC50 was less than 3.70 and the pIC50 is 3.92.
For the molecule `CS(=O)(=O)CC1=Nc2nnc(CCCCCCCc3nnc4n3C(=O)C(CS(C)(=O)=O)=N4)n2C1=O`, the pEC50 was less than 5.00 and the pIC50 was less than 5.00.
`CC1=C(O)C(=O)C2C(=O)C1C1Cc3ccccc3C21` (centres undefined): the pEC50 is less than 3.29 and the pIC50 was less than 3.29.
`COP(=O)(OC)/C(=C/c1c[nH]c2ccccc12)C(=O)O`: the pEC50 is less than 3.70 and the pIC50 is less than 3.70.
Consider `NC(N)=NNCCOc1c(Cl)cccc1Cl`, for which the pEC50 was less than 3.70 and the pIC50 was 4.04.
For `CCC12CCCNC1c1c(n(C)c3ccccc13)C(C(=O)OC)C2` (centres undefined), the pEC50 was less than 4.43 and the pIC50 was 4.46.
Take `CCCCCC/C=C\CCCCCCCCCc1cccc(OC)c1O`: the pEC50 was less than 3.70 and the pIC50 was less than 3.70.
As to `O=C(NNc1ccccc1)/C(=C/c1ccc2c(c1)OCO2)NC(=O)c1ccccc1`, the pEC50 is less than 4.89 and the pIC50 was less than 4.89.
`CC(C)(C)OC(=O)N(CCCN)CCCCN(CCCN)C(=O)OC(C)(C)C`: the result was inactive.
Take `CC(C)=CCC/C(C)=C/CN1Cc2cccc3[nH]c(=S)n(c23)CC1C` (centres undefined): the pEC50 was less than 4.74.
As to `COC1OC2COC1(OC)C1OC(C)(C)OC21` (centres undefined), the pEC50 is less than 3.70 and the pIC50 was less than 3.70.
For the molecule `COC(=O)C1=C(C)NC2=C(C(=O)c3ccccc32)C1c1cn[nH]c1-c1ccccc1` (centres undefined), the pEC50 was less than 4.70 and the pIC50 was less than 4.70.
As for `Cc1ccc2oc(-c3nnc(N)s3)cc(=O)c2c1`, the pEC50 is less than 4.55 and the pIC50 was less than 4.55.
As for `O=C1CSC(c2ccc(Cl)cc2)N1c1ccc(Oc2ccc(Cl)cc2)c(Cl)c1` (centres undefined), the pEC50 is less than 3.70 and the pIC50 was 4.62.
As to `C1CCN2CC3CONC3C2C1` (centres undefined), the pEC50 was less than 2.83 and the pIC50 was less than 2.83.
Consider `O=C(/C=C\c1cccc(O)c1)/C=C/c1cccc(O)c1`, for which the pEC50 is 3.97 and the pIC50 is 3.95.
Regarding `COc1cccc(-c2nnc(N)o2)c1`, the outcome was inactive.
Regarding `Cc1cc(=O)oc2c(CNC(Cc3ccccc3)C(=O)O)c(O)ccc12` (centres undefined), the pEC50 was less than 3.70 and the pIC50 is less than 3.70.
Take `CC1OC(Oc2c(-c3cc(O)c(O)c(O)c3)oc3cc(O)cc(O)c3c2=O)C(O)C(O)C1O` (centres undefined): the outcome was inactive.
In the case of `C=C(C)C(=O)O[C@H]1C[C@@]23O[C@@H]2CCC(=C[C@H]2OC(=O)C(=C)[C@H]12)COC3O` (some centres undefined), the pEC50 is less than 3.71 and the pIC50 is 4.42.
In the same order, the values of `CC1CCC(C(C)C)C(OC(=O)NCn2cc(-c3ccccc3)nn2)C1` (centres undefined) are less than 3.70 and less than 3.70.
In the case of `COc1ccc(CCNc2ccc(NCCc3ccc(OC)c(OC)c3)c3c2C(=O)c2ccccc2C3=O)cc1OC`, the result was inactive.
As to `C=CC(C)NC(=S)NNC(=S)NC` (centres undefined), the pEC50 is less than 3.70 and the pIC50 was 4.05.
As for `CN(C)CCCNC(=O)c1cc(NC(=O)c2cc(NC(=O)c3cc(NC(=O)c4cncc(C(=O)Nc5cc(C(=O)Nc6cc(C(=O)Nc7cc(C(=O)NCCCN(C)C)n(C)c7)n(C)c6)n(C)c5)c4)cn3C)cn2C)cn1C`, the pEC50 was less than 4.00 and the negative-log IC50 (pIC50) is less than 4.00.
In the case of `CC(=O)C1(C(=O)C(=[N+]=[N-])S(=O)(=O)c2ccccc2)CC1`, the pEC50 was less than 3.07 and the pIC50 is 5.08.
In the case of `CCOC(=O)C1=CC(C)(C(=O)OCC)Nc2c(nc(OC)[nH]c2=O)N1` (centres undefined), the pEC50 was less than 3.70 and the pIC50 was less than 3.70.
`O=c1ccccc2cccc(O)c12`: the outcome was inactive.
For `COc1cc2c(c(OC)c1)C1(CC(CC#N)C2)SCCS1` (centres undefined), the outcome was inactive.
Take `COc1cccc(C2c3cc4c(cc3OC(NNC(N)=O)C2C)OCO4)c1O` (centres undefined): the pEC50 was less than 3.70 and the negative logarithm of the IC50 (pIC50) was 5.95.
For the molecule `N#Cc1ccc(C=C2C(=O)c3ccccc3C2=O)cc1`, the pEC50 was less than 4.14 and the pIC50 is 4.33.
For `CC(=O)N1CCc2cc(S(C)(=O)=O)c3c(c21)CCC3`, the outcome was inactive.
With `CC/C(=N/O)C(C)C(=O)CCC(=O)Nc1ccc(Cl)cc1` (centres undefined), the pEC50 is less than 4.08 and the pIC50 was less than 4.08.
In the case of `COc1ccc(-n2c(N)c(C#N)c3c(c2=S)CCC3)cc1`, the pEC50 was less than 3.50 and the pIC50 was less than 3.50.
As to `O=C(c1cccs1)N(C(=S)OCc1ccccn1)c1ccccc1`, the pEC50 is less than 3.70 and the pIC50 is 4.10.
Consider `Cc1[nH]c2cc([N+](=O)[O-])ccc2c1[N+](=O)[O-]`, for which the result was inactive.
Consider `CCOP(=O)(OCC)C1C(=O)O[C@H]2CCCC[C@@H]12` (some centres undefined), for which the result was inactive.
Still for that read-out and setting: the same measure for `C=C1C(=O)OC2C=C(CCC(C)=O)C(C)C(OC(C)=O)CC12` (centres undefined): “inactive”.
As for `O=c1oc2cccnc2n1CCN1CCN(c2ccc(Oc3ccccc3)cc2)CC1`, the pEC50 is less than 3.70 and the pIC50 was 4.28.
For the molecule `O=C1c2cccc3cccc(c23)C(=O)N1CC1CCCO1` (centres undefined), the result was inactive.
In the case of `OCC(Oc1ccccc1)C(O)C(O)C(CO)Oc1ccccc1` (centres undefined), the pEC50 was less than 3.70 and the pIC50 was less than 3.70.
Turning to `COC(=O)C1(Cc2ccc3c(c2)CCC3)Cc2ccc3c(c2C1)CCC3` (centres undefined), the pEC50 is less than 3.70 and the pIC50 was 4.43.
Regarding `O=S(=O)(c1ccccc1)C1(Sc2ccccc2)CC=CC1`, the pEC50 was less than 4.09 and the pIC50 is 4.29.
In the case of `CCN(CC)C(=S)N/N=C(/c1ccccc1)c1ccccn1`, the pEC50 is less than 3.70 and the pIC50 was 5.82.
Turning to `CC/C(Cl)=N\OC(=O)Nc1ccc(F)c([N+](=O)[O-])c1`, the pEC50 was less than 3.70 and the pIC50 was 5.55.
The corresponding values for `CCOC(=O)c1cc(C(=O)c2ccccc2)n2nc(-c3ccc(Cl)cc3)ccc12` are less than 4.30 and less than 4.30.
